# Results reported in ChEMBL document CHEMBL4190255, “Novel celastrol derivatives with improved selectivity and enhanced antitumour activity: Design, synthesis and biological evaluation” (Eur J Med Chem, 2017).
# Columns and labels:
# A549 = test: Antiproliferative activity against human A549 cells after 72 hrs by MTT assay; type: functional, cell-based; conditions: A549, 72 h
# MIA PaCa-2 = test: Antiproliferative activity against human MIAPaCa2 cells after 72 hrs by MTT assay; type: functional, cell-based; conditions: MIA PaCa-2, 72 h
# SK-BR-3 = test: Antiproliferative activity against human SKBR3 cells after 72 hrs by MTT assay; type: functional, cell-based; conditions: SK-BR-3, 72 h
# [1] = Selectivity index, ratio of IC50 for human BJ cells to IC50 for human A549 cells; type: toxicity; conditions: BJ cells versus A549 cells, read-out: Ratio IC50
# [2] = Selectivity index, ratio of IC50 for human BJ cells to IC50 for human MIAPaCa2 cells; type: toxicity; conditions: BJ cells versus MIAPaCa2 cells, read-out: Ratio IC50
# [3] = Selectivity index, ratio of IC50 for human BJ cells to IC50 for human SKOV3 cells; type: toxicity; conditions: BJ cells versus SKOV3 cells, read-out: Ratio IC50
# BJ = test: Cytotoxicity against human BJ cells assessed as reduction in cell viability after 72 hrs by MTT assay; type: cell-based
Structure (SMILES),IC50 (A549),IC50 (MIA PaCa-2),IC50 (SK-BR-3),selectivity ratio [1],selectivity ratio [2],selectivity ratio [3],IC50 (BJ)
CC1=C(O)C(=O)C=C2C1=CC=C1[C@@]2(C)CC[C@@]2(C)[C@@H]3C[C@](C)(NC(=O)NO)CC[C@]3(C)CC[C@]12C,3500 nM,850 nM,,,,,
CCCNC(=O)N[C@]1(C)CC[C@]2(C)CC[C@]3(C)C4=CC=C5C(=CC(=O)C(O)=C5C)[C@]4(C)CC[C@@]3(C)[C@@H]2C1,1260 nM,660 nM,,,,,
CNC(=O)N[C@]1(C)CC[C@]2(C)CC[C@]3(C)C4=CC(=O)c5c(cc(OC)c(OC)c5C)[C@]4(C)CC[C@@]3(C)[C@@H]2C1,> 15000 nM,> 5000 nM,,,,,
Cc1c(O)c(O)cc2c1C(=O)C=C1[C@@]2(C)CC[C@@]2(C)[C@@H]3C[C@](C)(NC(N)=O)CC[C@]3(C)CC[C@]12C,> 15000 nM,> 5000 nM,,,,,
CC1=C(O)C(=O)C=C2C1=CC=C1[C@@]2(C)CC[C@@]2(C)[C@@H]3C[C@](C)(C(=O)O)CC[C@]3(C)CC[C@]12C [CELASTROL],,,720 nM,1.75,5.97,2.34,

# Now from value to compound, other results behind:
IC50 (A549),IC50 (MIA PaCa-2),Structure (SMILES),IC50 (SK-BR-3),selectivity ratio [1],selectivity ratio [2],selectivity ratio [3],IC50 (BJ)
2990 nM,560 nM,CC1=C(O)C(=O)C=C2C1=CC=C1[C@@]2(C)CC[C@@]2(C)[C@@H]3C[C@](C)(NC(=O)Nc4ccccc4N)CC[C@]3(C)CC[C@]12C,,,,,
1440 nM,310 nM,CCCCNC(=O)N[C@]1(C)CC[C@]2(C)CC[C@]3(C)C4=CC=C5C(=CC(=O)C(O)=C5C)[C@]4(C)CC[C@@]3(C)[C@@H]2C1,,1.48,6.94,,2120 nM
1450 nM,410 nM,CNC(=O)N[C@]1(C)CC[C@]2(C)CC[C@]3(C)C4=CC=C5C(=CC(=O)C(O)=C5C)[C@]4(C)CC[C@@]3(C)[C@@H]2C1,,1.36,4.72,,1960 nM
1410 nM,550 nM,CCNC(=O)N[C@]1(C)CC[C@]2(C)CC[C@]3(C)C4=CC=C5C(=CC(=O)C(O)=C5C)[C@]4(C)CC[C@@]3(C)[C@@H]2C1,,,,,
> 15000 nM,> 5000 nM,CC(=O)Oc1cc2c(c(C)c1OC(C)=O)C(=O)C=C1[C@@]2(C)CC[C@@]2(C)[C@@H]3C[C@](C)(C(=O)O)CC[C@]3(C)CC[C@]12C,,,,,
